Experimental data published in US9321750B2, “ROR modulators and their uses” (INNOV17 LLC, priority 2012, dated 2016).
Where two headings read alike, the source gives them in different places.

Key:
[1] = test system: IL-21; assay: Real-time qRT-PCR in TH17 cells: IL-21 gene expression; assay type: cell-based, human; set-up: key: A: No change in gene expression observed relative to DMSO treated Th17 cells; B: Decreased gene expression observed relative to DMSO treated Th17 cells; C: Increased gene expression observed relative to DMSO treated Th17 cells
Procedure: (§1) Peripheral blood mononuclear cells (PBMCs) were sourced from freshly prepared leukocyte enriched plasma (buffy coat) from healthy volunteers from which PBMCs were isolated by density gradient centrifugation using Ficoll-Paque™ PLUS (GE Healthcare). Naïve CD4+ T cells were isolated using the Naïve CD4+ T cell Isolation Kit II (Miltenyi Biotec) as per manufacturer's instructions. CD4+ T cells were plated at 5×10^4 cells/well in 96 well plates pre-coated with immobilized human (h)-αCD3 antibody (eBioscience) then differentiated to TH17 cells using h-αCD28, h-αIFNγ, h-αIL4, h-IL6, h-IL23, h-IL1β, h-TGFβ1 (eBioscience) and maintained in a cell culture incubator at 37° C. with 5% CO2 in TexMACS Medium (Miltenyi Biotec) supplemented with 1% Penicillin/Streptomycin (Lonza) over 5 days.
(§2) RNA was isolated from TH17 cells and cDNA was synthesized using the Verso cDNA kit (Thermo Scientific) as per manufacturer's instructions. IL-17A, IL-17F, IL-21, IL-22, G-CSF, IL-23R and FOXP3 gene expression were determined for compound treated and untreated TH17 cell samples using Solaris qPCR Gene expression assays (Thermo Scientific) with an iCycler iQ Real-Time PCR Detection System (Bio-Rad). Individual gene expression was normalized to a panel of six reference genes (ACTB, TBP, HPRT1, PGK1, TFRC and PPIA) (Thermo Scientific) and analyzed by REST 2009 (Qiagen) in accordance to MIQE guidelines (Bustin et al. (2009) Clin. Chem, 55:611-622). The effects of compounds on TH17 cytokine mRNA levels are presented as fold change in gene expression of compound treated TH17 cells relative to DMSO treated cells in the table below.

[2] = test system: IL-22; assay: TH17 cytokine inhibition as measured by ELISA: IL-22; assay type: cell-based; conditions: 120 h; human TH17 cells, 5 days differentiation, ELISA of supernatant
Procedure: as §1
(§3) Human CD4+ T cells were differentiated to TH17 cells as described in the presence or absence of various concentrations of compounds in a final concentration of 0.1% DMSO in TexMACS medium. Supernatants were collected and stored at −20° C. until they were to be assayed for IL-17A, IL-17F, IL-17AF, IL-21 and/or IL-22 levels as determined by Ready-Set-Go ELISA kits (eBioscience) as per manufacturer's instructions. Endpoint absorbance was read at 450 nm and 570 nm according to manufacturer's instructions (eBioscience) using a microplate reader (Perkin Elmer). The percentage of cytokine inhibition was calculated with reference to DMSO treated cells and the IC50s were determined by GraphPad Prism software and presented in the table below.

[3] = test system: FOXP3; assay: Real-time qRT-PCR in TH17 cells: FOXP3 gene expression; assay type: cell-based, human; set-up: key: A: No change in gene expression observed relative to DMSO treated Th17 cells; B: Decreased gene expression observed relative to DMSO treated Th17 cells; C: Increased gene expression observed relative to DMSO treated Th17 cells
Procedure: as §1, §2

[4] = target: RORγ LBD (Homo sapiens (Human), UniProt P51449); assay: RORγ LBD binding (Human RORγ Assay System, INDIGO Biosciences); conditions: 0.5% DMSO
Procedure: Compound binding to the human RORγ LBD was assessed using the Human RORγ Assay System (INDIGO Biosciences Inc.) as per manufacturer's instructions.

[5] = test system: IL-17AF; assay: TH17 cytokine inhibition as measured by ELISA: IL-17AF; assay type: cell-based; conditions: 120 h; human TH17 cells, 5 days differentiation, ELISA of supernatant
Procedure: as §1, §3

[6] = test system: IL-17F; assay: Real-time qRT-PCR in TH17 cells: IL-17F gene expression; assay type: cell-based, human; set-up: key: A: No change in gene expression observed relative to DMSO treated Th17 cells; B: Decreased gene expression observed relative to DMSO treated Th17 cells; C: Increased gene expression observed relative to DMSO treated Th17 cells
Procedure: as §1, §2

[7] = target: RORα LBD (Homo sapiens (Human), UniProt P35398); assay: TR-FRET co-repressor NCoR1-D2 interaction with RORα LBD; assay type: biochemical
Source text: The Time-Resolved Fluorescence Resonance Energy Transfer (TR-FRET) assay kit (Life Technologies) was used to measure compound efficacy to disrupt or enhance ligand-mediated interaction of the co-activator and co-repressor peptides with the purified GST-tagged (i) RORγ LBD or (ii) […]. The RORγ LBD and RORα LBD each have a basal level of interaction with the co-activator D22 or co-repressor NCoR1-D2 in the absence of ligand, thus it is possible to identify compounds that inhibit or induce RORγ and/or RORα co-activator/co-repressor interactions, thus determining RORα, RORγ, or RORα/RORγ compound selectivity. The assay was performed as per manufacturer's instructions and TR-FRET was assessed 2 and 20 hours post-assay initiation. Compounds were identified to (i) have no impact on either co-activator displacement or […] from the assessed LBD (ii) promote co-activator displacement from the assessed LBD (iii) promote co-repressor recruitment to the assessed LBD or (iv) concurrently promote co-activator displacement from the assessed LBD and co-repressor recruitment to the assessed LBD.

[8] = test system: IL-21; assay: TH17 cytokine inhibition as measured by ELISA: IL-21; assay type: cell-based; conditions: 120 h; human TH17 cells, 5 days differentiation, ELISA of supernatant
Source text: Peripheral blood mononuclear cells (PBMCs) were sourced from freshly prepared leukocyte enriched plasma (buffy coat) from healthy volunteers from which PBMCs were isolated by density gradient centrifugation using Ficoll-Paque™ PLUS (GE Healthcare). Naïve CD4+ T cells were isolated using the Naïve CD4+ T cell Isolation Kit II (Miltenyi Biotec) as per manufacturer's instructions. […]
as §3

[9] = 2 hr, read-out: RORα EC50 NCoR1-D2 co-repressor recruitment 2 hr
[10] = 20 hr, read-out: RORα EC50 NCoR1-D2 co-repressor recruitment 20 hr

Chain of RORγ LBD (P51449 269-508): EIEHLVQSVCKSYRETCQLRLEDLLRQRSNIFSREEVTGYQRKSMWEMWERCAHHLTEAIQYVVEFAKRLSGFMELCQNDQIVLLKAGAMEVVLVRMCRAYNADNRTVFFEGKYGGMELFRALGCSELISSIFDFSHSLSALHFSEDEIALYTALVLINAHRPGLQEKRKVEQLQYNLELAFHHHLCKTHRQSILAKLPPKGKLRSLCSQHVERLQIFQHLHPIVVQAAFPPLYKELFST
Chain of RORα LBD (P35398 272-510): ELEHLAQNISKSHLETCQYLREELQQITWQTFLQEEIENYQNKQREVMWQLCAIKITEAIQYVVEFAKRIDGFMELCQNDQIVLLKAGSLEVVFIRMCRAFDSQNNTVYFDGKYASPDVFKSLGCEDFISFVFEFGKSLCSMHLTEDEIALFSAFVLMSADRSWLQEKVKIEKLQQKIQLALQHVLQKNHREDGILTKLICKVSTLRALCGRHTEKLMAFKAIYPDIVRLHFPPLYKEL

| Structure (SMILES) | Fold change in mRNA level of compound treated TH17 cells relative to DMSO treated cells IL-21 [1] | IC50 [2] | Fold change in mRNA level of compound treated TH17 cells relative to DMSO treated cells FOXP3 [3] | IC50 [4] | IC50 [5] | Fold change in mRNA level of compound treated TH17 cells relative to DMSO treated cells IL-17F [6] | EC50 [7, 9] | EC50 [7, 10] | IC50 [8] |
| --- | --- | --- | --- | --- | --- | --- | --- | --- | --- |
| CC(=O)Nc1ccc2c(c1)CCCN2Cc1ccc(C(O)(C(F)(F)F)C(F)(F)F)cc1 [Example 2, N-(1-(4-(1,1,1,3,3,3-hexafluoro-2-hydroxypropan-2-yl)benzyl)-1,2,3,4-tetrahydroquinolin-6-yl)acetamide] | A | < 10 µM | A | < 10 µM | < 10 µM | A | > 30 µM | > 30 µM | – |
| CC(=O)Nc1ccc2c(c1)CCN2Cc1ccc(C(O)(C(F)(F)F)C(F)(F)F)cc1 [Example 4, N-(1-(4-(1,1,1,3,3,3-hexafluoro-2-hydroxypropan-2-yl)benzyl)indolin-5-yl)acetamide] | B | < 10 µM | C | < 10 µM | < 10 µM | B | > 30 µM | > 30 µM | < 10 µM |
| CS(=O)(=O)Nc1ccc2c(c1)CCCN2Cc1ccc(C(O)(C(F)(F)F)C(F)(F)F)cc1 [Example 5, N-(1-(4-(1,1,1,3,3,3-hexafluoro-2-hydroxypropan-2-yl)benzyl)-1,2,3,4-tetrahydroquinolin-6-yl)methanesulfonamide] | B | < 10 µM | C | < 10 µM | – | B | < 30 µM | < 30 µM | – |
